Experimental data as given in US7901906B2, “Targeting of MKRN1 for identifying cancer treatment agents” (University of Central Florida Research Foundation, Inc., priority 2006, dated 2011).
Non-standard residues stand in square brackets, D forms with d. Residues, ends and D or L forms follow the SMILES beside them. *: point of attachment. Nle = CCCC[C@H](N)C(=O)O; Cbz = O=C(OCc1ccccc1)*

Tested on: hTERT
Experiment: hTERT protein levels by immunoblotting in H1299 cells
Assay type: cell-based, human
Procedure: FIG. 1. hTERT is sensitive to the Hsp90 antagonist geldanamycin. (A) Down-regulation of ectopically expressed hTERT by GA. H1299 cells transfected with Flag-hTERT or Flag-TRF1 were treated with 0.1 μM GA for the indicated times. Lysates were resolved on 8% SDS-PAGE and analyzed by immunoblotting using an anti-Flag antibody probe. Cells were pretreated with 10 μM MG132 or E-64 for 2 hours, either alone or before treatment with GA. (B) Concentration dependence of GA on hTERT. H1299 cells transfected with Flag-hTERT or hTERT-HA were treated for 2 hours with the GA concentration indicated. The hTERT polypeptides were visualized with anti-Flag or anti-HA antibodies as marked by each blot. (C) Down-regulation of endogenous hTERT by GA. H1299 cells were treated with 0.1 μM GA for the indicated times, and cell lysates were analyzed by immunoprecipitation with anti-hTERT antibody followed by immunoblotting using same antibody probe. Cells were pretreated with 10 μM MG132 for 2 hours, either alone or before treatment with GA. Molecular weight markers are shown in kilodaltons. (D) H1299 cells were treated with 0.1 μM GA for the indicated times, and cell lysates were analyzed for telomerase activity by the TRAP assay. The lane labeled LB corresponds to the negative control (lysis buffer only). ITAS represents the internal telomerase assay standard. (E) Saos-2 cells transfected with Flag-hTERT or hTERT-HA or empty vector were untreated or treated with 0.1 μM GA for 16 hours, and cell lysates were analyzed for telomerase activity using the TRAP assay.
FIG. 2. hTERT is ubiquitinated prior to proteasome-mediated degradation. (A) H1299 cells were co-transfected with Flag-hTERT and HA-ubiquitin. Cells were either untreated or treated for 2 hours with 10 μg/ml ALLnN or 0.1 μM GA, or a combination of the two as specified above each lane. Immunoprecipitation was performed with anti-Flag antibody before probing with anti-hTERT or anti-HA antibodies as indicated besides each blot. Molecular weight markers are shown in kilodaltons. (B) H1299 cells co-transfected with Flag-hTERT and HA-ubiquitin were treated for 1 hour with the GA concentration indicated in the presence of 10 μM MG132. Immunoprecipitation was performed with anti-Flag antibody followed by immunoblotting using an anti-HA antibody probe. (C) H1299 cells co-transfected with Flag-hTERT and HA-ubiquitin were either untreated or treated for 2 hours with 10 μg/ml ALLnN as specified above each lane. Proteins were immunoprecipated with anti-Flag antibody followed by immunoblotting using an anti-HA antibody probe.
The human lung carcinoma cell line H1299 was cultured in RPMI-1640 medium, and the human fibrosarcoma cell line HT1080 was cultured in Dulbecco's modified Eagle's medium supplemented with 10% fetal bovine serum, 100 units/ml penicillin, and 100 μg/ml streptomycin in 5% CO2 at 37° C. The human osteosarcoma cell line Saos-2 was maintained in McCoy's 5A medium containing 15% fetal bovine serum, 100 units/ml penicillin, and 100 μg/ml streptomycin. To establish cell lines stably expressing MKRN1, the MKRN1-V5 construct was transfected into HT1080 cells using Lipofectamine Plus (Invitrogen, Carlsbad, Calif.) according to the manufacturer's instructions. As a control, HT1080 cells were also stably transfected with an empty vector. Multiple independent single clones were isolated and checked for protein expression by immunoblotting with anti-V5 antibody.
H1299 cells were transiently transfected with the expression vectors indicated in the figure legends using TransFast transfection reagent (Promega, Madison, Wis.) according to the manufacturer's instructions. Cells were lysed with buffer containing 0.5% NP-40, 50 mM Tris-HCl (pH 7.5), 150 mM NaCl, 2 mM phenyl methylsulphonyl fluoride. […]

Row | Compound | effect on GA-induced degradation of endogenous hTERT (H1299, 10 μM MG132 pretreatment 2 hours before GA) | effect on GA-induced down-regulation of hTERT (H1299 Flag-hTERT, 10 μM pretreatment 2 hours, then GA 4 hours) | hTERT expression levels, inhibitor alone (H1299 Flag-hTERT, 10 μM, absence of GA, relative to untreated controls) | effect on GA-induced decrease of hTERT levels (H1299 Flag-hTERT and HA-ubiquitin, 10 μg/ml ALLnN plus 0.1 μM GA, 2 hours) | hTERT levels (H1299 co-transfected with Flag-hTERT and HA-ubiquitin, 2 hours, single agent (0.1 μM GA or 10 μg/ml ALLnN))
1 | CC(C)C[C@@H](C=O)NC(=O)[C@H](CC(C)C)NC(=O)[C@H](CC(C)C)NC(=O)OCc1ccccc1 [MG132] (Cbz-Leu-Leu-Leu-aldehyde) | rescued | rescued | did not cause a significant change | – | –
2 | CCCC[C@@H](C=O)NC(=O)[C@H](CC(C)C)NC(=O)[C@H](CC(C)C)NC(C)=O [ALLnN] (Ac-Leu-Leu-[Nle]-aldehyde) | – | – | – | reversed this trend | did not affect
